Data taken from the NIST ThermoML archive (doi:10.1016/j.fluid.2016.06.028).
Numbers after ± are expanded uncertainties.

Conditions: for surface tension liquid-gas: Ring tensiometer; for viscosity / electrical conductivity / mass density: 101.33 kPa, Liquid; for viscosity: Concentric cylinders viscometry; for electrical conductivity: Direct current cell with electrodes; for mass density: Vibrating tube method

COCC[N+]1(C)CCCC1.O=S(=O)([N-]S(=O)(=O)C(F)(F)F)C(F)(F)F
Conditions | electrical conductivity [S/m] | mass density [kg/m3] | surface tension liquid-gas [mN/m] | viscosity [mPa·s]
298.15 K | 0.345 ± 0.04 | 1453 ± 1.9 | 49.22 ± 0.87 | 52.19 ± 5.2
303.15 K | 0.402 ± 0.04 | 1448.7 ± 1.9 | 48.62 ± 0.86 | 46.49 ± 4.7
313.15 K | 0.48 ± 0.04 | 1439.3 ± 1.9 | 47.34 ± 0.84 | 34.49 ± 3.5
323.15 K | 0.534 ± 0.04 | 1429.9 ± 1.9 | 46.18 ± 0.83 | 25.79 ± 2.6
333.15 K | 0.59 ± 0.04 | 1420.7 ± 1.8 | 45 ± 0.81 | 20.1 ± 2
343.15 K | 0.648 ± 0.04 | 1411.2 ± 1.8 | 44.26 ± 0.81 | 16.8 ± 1.7
353.15 K | 0.699 ± 0.04 | 1401.9 ± 1.8 | 42.28 ± 0.78 | 13.5 ± 1.4

CCC[N+](C)(C)CC.O=S(=O)([N-]S(=O)(=O)C(F)(F)F)C(F)(F)F
Conditions | electrical conductivity [S/m] | mass density [kg/m3] | surface tension liquid-gas [mN/m] | viscosity [mPa·s]
298.15 K | 0.248 ± 0.04 | 1403 ± 1.8 | 46.56 ± 0.83 | 58.79 ± 5.9
303.15 K | 0.281 ± 0.04 | 1398.8 ± 1.8 | 45.84 ± 0.83 | 53.39 ± 5.4
313.15 K | 0.325 ± 0.04 | 1389.8 ± 1.8 | 44.92 ± 0.81 | 38.39 ± 3.9
323.15 K | 0.358 ± 0.04 | 1381 ± 1.7 | 43.95 ± 0.8 | 28.49 ± 2.9
333.15 K | 0.414 ± 0.04 | 1372.1 ± 1.7 | 43.34 ± 0.79 | 21.3 ± 2.1
343.15 K | 0.519 ± 0.04 | 1362.4 ± 1.7 | 42.03 ± 0.78 | 17.1 ± 1.7
353.15 K | 0.634 ± 0.04 | 1352.7 ± 1.7 | 40.89 ± 0.76 | 14.1 ± 1.4

COCC[N+]1(C)CCCCC1.O=S(=O)([N-]S(=O)(=O)C(F)(F)F)C(F)(F)F
Conditions | electrical conductivity [S/m] | mass density [kg/m3] | surface tension liquid-gas [mN/m] | viscosity [mPa·s]
298.15 K | 0.209 ± 0.04 | 1433.2 ± 1.9 | 44.65 ± 0.81 | 69.89 ± 7
303.15 K | 0.241 ± 0.04 | 1429 ± 1.9 | 44.06 ± 0.8 | 55.79 ± 5.6
313.15 K | 0.287 ± 0.04 | 1419.8 ± 1.8 | 43.2 ± 0.79 | 35.69 ± 3.6
323.15 K | 0.325 ± 0.04 | 1410.7 ± 1.8 | 42.01 ± 0.78 | 26 ± 2.6
333.15 K | 0.396 ± 0.04 | 1401.7 ± 1.8 | 40.98 ± 0.76 | 19.8 ± 2
343.15 K | 0.489 ± 0.04 | 1392.5 ± 1.8 | 40.19 ± 0.75 | 15.6 ± 1.6
353.15 K | 0.599 ± 0.04 | 1383.3 ± 1.7 | 38.83 ± 0.74 | 13.8 ± 1.4

COCC[N+]1(C)CCOCC1.O=S(=O)([N-]S(=O)(=O)C(F)(F)F)C(F)(F)F
Conditions | electrical conductivity [S/m] | mass density [kg/m3] | surface tension liquid-gas [mN/m] | viscosity [mPa·s]
298.15 K | 0.065 ± 0.04 | 1500.2 ± 2.1 | 50.14 ± 0.88 | 257.6 ± 26
303.15 K | 0.079 ± 0.04 | 1495.7 ± 2 | 49.3 ± 0.87 | 210.9 ± 22
313.15 K | 0.108 ± 0.04 | 1486.4 ± 2 | 48.41 ± 0.86 | 127.2 ± 13
323.15 K | 0.136 ± 0.04 | 1477.2 ± 2 | 47.64 ± 0.85 | 77.98 ± 7.9
333.15 K | 0.17 ± 0.04 | 1468 ± 2 | 46.3 ± 0.83 | 51.89 ± 5.2
343.15 K | 0.257 ± 0.04 | 1458.9 ± 1.9 | 45.36 ± 0.82 | 37.49 ± 3.8
353.15 K | 0.334 ± 0.04 | 1449.8 ± 1.9 | 44.74 ± 0.81 | 27.59 ± 2.8

CC[N+](C)(C)CCOC.O=S(=O)([N-]S(=O)(=O)C(F)(F)F)C(F)(F)F
Conditions | electrical conductivity [S/m] | mass density [kg/m3] | surface tension liquid-gas [mN/m] | viscosity [mPa·s]
298.15 K | 0.288 ± 0.04 | 1424.9 ± 1.8 | 47.56 ± 0.85 | 59.39 ± 6
303.15 K | 0.315 ± 0.04 | 1420.5 ± 1.8 | 47.32 ± 0.84 | 50.39 ± 5.1
313.15 K | 0.357 ± 0.04 | 1411 ± 1.8 | 45.67 ± 0.82 | 30.59 ± 3.1
323.15 K | 0.395 ± 0.04 | 1401.5 ± 1.8 | 44.86 ± 0.81 | 23.1 ± 2.3
333.15 K | 0.465 ± 0.04 | 1390.3 ± 1.8 | 43.46 ± 0.8 | 18.3 ± 1.8
343.15 K | 0.551 ± 0.04 | 1379.2 ± 1.7 | 42.23 ± 0.78 | 15 ± 1.5
353.15 K | 0.633 ± 0.04 | 1368.9 ± 1.7 | 40.44 ± 0.76 | 13.2 ± 1.3
